# PMC5017749, “Preclinical Metabolism, Pharmacokinetics and In Vivo Analysis of New Blood-Brain-Barrier Penetrant Fingolimod Analogues: FTY720-C2 and FTY720-Mitoxy” (PLoS ONE, 2016)
# Read-outs that look alike come from different tables or passages of the source.
# How the values were obtained:
# [1] = Plasma and brain pharmacokinetics after single oral or intravenous dosing of mice; type: in vivo; conditions: for half-life / Tmax: male; for half-life: iv; for oral bioavailability: single oral dose
# Description: The objectives of this study were to evaluate the pharmacokinetic profiles of FTY720-C2 and FTY720-Mitoxy following single oral and intravenous (IV) dosing of male mice and to determine blood and tissue levels of both compounds at various postdose time points. Male C57BL/6 mice were 8.4 weeks of age and weighed 20.6–24.8 g on the day of dose administration. Each animal was identified by a unique number via an ear tag with a matching cage tag. Mice were administered (two mice per time point) a single equivalent molar dose of either FTY720-C2 (1 mg/kg) or FTY720-Mitoxy (2 mg/kg) by oral or intravenous administration. As the molecular weight of FTY720-Mitoxy (704.72 g/mol) is ~ two times greater than that of FTY720-C2 (349.51 g/mol), the dose level of FTY720-Mitoxy was double that of FTY720-C2. Details of the design showing group assignments, dose groups, dose levels, as well as blood collection and necropsy time points are shown in Table 2. At the appropriate time points after dosing and blood sample collection for bioanalysis, animals were euthanized by CO2 inhalation until unresponsive, followed by decapitation. Brains were rapidly harvested, rinsed with ice cold saline, blotted dry and bisected along the mid-line. The left and right hemispheres of the brain were weighed separately. Each was placed in separate tubes, immediately flash frozen in liquid nitrogen and stored at -70°C prior to evaluation. All samples were labeled with the test facility study number, animal identification number, dose group, date, collection interval, and tissue identity (left or right brain hemisphere). Adrenal glands from each mouse were also collected and flash frozen.
# FTY720-C2 and FTY720-Mitoxy concentrations in plasma and brain were determined by LC-MS/MS. Samples were first prepared by liquid-liquid extraction. To 50 μL of plasma or brain homogenate were added 50 μL of 0.1 M NaOH and 50 μL of internal standard solution (C17 sphingosine) in ethanol. Analytes were then extracted into 1 mL of methyl tert-butyl ether:dichloromethane mixture (75:25, v/v) by vortexing for 1 hr and centrifuged. Supernatants were evaporated to dryness under nitrogen. Residues were reconstituted in 150 μL of 50% methanol in water and spin filtered before applied onto XBridge C18 column (3.5-μm particle; Waters, Milford, MA) with a SecurityGuard C18 guard column (4.0 × 2.0 mm; Phenomenex Inc.). Separations were accomplished with a gradient of 0.1% acetic acid in water (v/v) versus 0.1% acetic acid in acetonitrile:methanol (75:25, v/v) at a rate of 0.5 mL/min. The eluents were further applied into an equipped API 4000 QTrap mass spectrometer (AB Sciex, Foster City, CA) with electrospray ionization (ESI) interface by two coupled LC-10 AT pumps, and monitored in multiple reaction monitoring (MRM) mode with precursor to product ion pairs for C17 sphingosine, FTY720-C2, and FTY720-Mitoxy as following: m/z 286.3 to 268.2, m/z 350.3 to 255.2, and m/z 624.4 to 289.2, respectively.
# Pharmacokinetic analysis was conducted using WinNonlin Version 6.2 (Pharsight, Mountain View CA), operating as a validated software system. Non-compartmental analysis was conducted using a bolus intravenous administration model for IV dosing and an extravascular administration model for oral dosing. The peak plasma concentration, time to achieve peak plasma concentration, half-life, mean residence time, and area under the plasma or brain concentration-time curve (Cmax, Tmax, T1/2, and AUC) were calculated from mean animal plasma and brain concentrations. Nominal blood collection times were used for pharmacokinetic calculations.
# [2] = Metabolic stability (intrinsic clearance) in dog liver microsomes; type: in vitro ADME, dog (Beagle); conditions: for microsomal CLint at 1 μM: Beagle; for percent of the remaining compound: after 60 minute incubation
# Description: Liver microsomal incubations contained 0.1mg/mL microsomal proteins and 1 μM of FTY720-C2 or FTY720-Mitoxy in 100 mM potassium phosphate buffer (pH 7.4) ± an NADPH regenerating system (3.5 mM glucose 6-phosphate, 1.3 mM NADP^+, and 0.4 units/mL glucose-6-phosphate dehydrogenase). Following incubations, reactions were terminated for analysis after 0, 10, 20, 30, and 60 min by the addition of acetonitrile containing C17 sphingosine (300 ng/mL) as the internal standard. Samples were vigorously mixed and centrifuged at 3,400 rpm for 10 min to pellet precipitated proteins. An aliquot of each supernatant was used for LC/MS analysis, for determination of the remaining FTY720-C2 and FTY720-Mitoxy. Similar incubations were performed using a cocktail solution containing 0.2 μM midazolam and 1 μM diclofenac to determine the metabolic activity of the microsomes as an additional control.
# Samples resulting from liver microsomal incubations were analyzed by LC-MS/MS. Aliquots of the supernatants were injected onto an X-Bridge C18 column (2.1 × 50 mm, 3.5-μm particles) (Waters, Milford, MA), preceded by a SecurityGuard C18 guard column (4.0 × 2.0 mm; Phenomenex Inc.). Separations were accomplished with a gradient of 0.1% acetic acid in water (v/v) versus 0.1% acetic acid in acetonitrile: methanol (75:25, v/v) at a rate of 0.8 mL/min. The eluents were further applied into an equipped API 4000 QTrap mass spectrometer (AB Sciex, Foster City, CA) with electrospray ionization (ESI) interface by two coupled LC-10 AT pumps. Peak area ratios of FTY720-C2 or FTY720-Mitoxy against the C17 sphingosine internal standard were used to determine the amount of parent remaining compared to that at 0 min. The percent of FTY720-C2 or FTY720-Mitoxy remaining was calculated by dividing the peak area ratio obtained at each time point by that obtained at 0 min. The in vitro intrinsic clearance (CLint) was calculated by linear regression of the log percent of compound remaining versus time plots using Microsoft Excel, two independent experiments (n = 2) were performed for each compound and species. Then, the mean and standard deviation (SD), of two values for each condition, were calculated using Microsoft Excel with the “AVERAGE” and “STDEV” functions, respectively.
# [3] = IV administration, sampling 5 min, 8, 24, 48 hr
# [4] = oral administration, 1 mg/kg, first sampling time point
structure (smiles),measurement,setting,value
"CCCCCCCCc1ccc(CCC(CO)(CO)NC(=O)CC[P+](c2ccccc2)(c2ccccc2)c2ccccc2)cc1 [FTY720-Mitoxy, N-(1-hydroxy-2-(hydroxymethyl)-4-(4-octylphenyl)butan-2-yl)-3’-triphenylphosphoniumpropanamide]",detected in plasma and brain up to (postdose),[1]; [3],48 h
same,time to penetrate the blood-brain-barrier after delivery,[1]; IV dosing,≤ 5 min
same,Tmax / time of highest concentration in brain,"[1]; IV dosing, FTY720-C2 1 mg/kg or FTY720-Mitoxy 2 mg/kg, first sampling time point",5 min
same,half-life,"[1]; mouse, in vivo, 2 mg/kg, IV dosing, 2 mg/kg, read-out: brain elimination half-life (converted)",106 min
same,half-life,"[1]; mouse, in vivo, 2 mg/kg, IV dosing, 2 mg/kg, read-out: plasma elimination half-life (converted)",56.4 min
same,half-life,"[1]; mouse, in vivo, 2 mg/kg, mice, IV, plasma and brain, read-out: half-lives",< 120 min
same,Tmax,"[1]; mouse, in vivo, IV dosing, FTY720-C2 1 mg/kg or FTY720-Mitoxy 2 mg/kg, first sampling time point, read-out: Tmax / time of highest concentration in plasma (converted)",5 min
same,partitioning to brain,[1]; mice,preferentially partition to brain
same,oral bioavailability,[1]; mice,not orally bioavailable
same,detection in plasma or brain following oral dosing,"[1]; oral, 2 mg/kg",not detected
same,microsomal CLint at 1 μM,"[2]; dog, liver microsomes, pH 7.4, dog liver microsomes, 0.1 mg/mL protein, 1 μM, mean of two determinations",1.4 µL/min/mg
same,intrinsic clearance interpreted in words,[2]; dog liver microsomes,low
same,Clint (intrinsic clearance),"[2]; dog liver microsomes, 0.1 mg/mL protein, 1 μM, mean of two determinations",1.35 ± 1.48 µL/min/mg
same,percent of the remaining compound,[2]; dog liver microsomes,112.5 ± 5.0%
"CCCCCCCCc1ccc(CCC(CO)(CO)NC(C)=O)cc1 [FTY720-C2, N-(1-hydroxy-2-(hydroxymethyl)-4-(4-octylphenyl)butan-2-yl)acetamide]",detected in plasma and brain up to (postdose),[1]; [3],8 h
same,time to penetrate the blood-brain-barrier after delivery,[1]; IV dosing,≤ 5 min
same,brain concentrations compared with plasma at 8 hr postdose,"[1]; after both IV and oral dosing, 8 hr postdose",much higher
same,Tmax,"[1]; C57BL/6, mouse, brain, IV dosing, FTY720-C2 1 mg/kg or FTY720-Mitoxy 2 mg/kg, first sampling time point, read-out: Tmax / time of highest concentration in brain (converted)",5 min
same,Tmax,"[1]; C57BL/6, mouse, plasma, IV dosing, FTY720-C2 1 mg/kg or FTY720-Mitoxy 2 mg/kg, first sampling time point, read-out: Tmax / time of highest concentration in plasma (converted)",5 min
same,partitioning to brain,[1]; mice,preferentially partition to brain
same,oral bioavailability,[1]; mice,orally bioavailable
same,time of highest concentration in brain,[1]; [4],1 h
same,time of highest concentration in plasma,[1]; [4],1 h
same,detected in plasma and brain up to (postdose),"[1]; oral administration, sampling 1, 8, 24, 48 hr",8 h
same,microsomal CLint at 1 μM,"[2]; pH 7.4, dog liver microsomes, 0.1 mg/mL protein, 1 μM, mean of two determinations",6 ± 0.28 µL/min/mg
same,intrinsic clearance interpreted in words,[2]; dog liver microsomes,low
same,percent of the remaining compound,[2]; dog liver microsomes,69.9 ± 0.6%
